Entries after “also recorded” stand apart in the source; their conditions may differ.
What was measured:
[1] = tested on: insulin response element (3×IRS-LUC); test: 3×IRS-LUC synthetic promoter reporter assay in PRA; format: cell-based, rat; details: PRA transfected with AHNAK fragments, 24 hrs
Text: (§1) Expression vectors and luciferase promoter reporters. Expression vectors, pC-DY, pM-DY, and pN-DY, baring the C-terminus, middle domain, and N-terminus of human AHNAK in c-myc-tagged pCDNA3 (Hashimoto, Amagai et al. 1993; Nie, Ning et al. 2000), were a generous gift of Dr. Hashimoto (Department of Dermatology, Kurume University School of Medicine, Kurume, Fukuoka, Japan). The rat GLUT4 promoter (GLUT4-P) reporter and a derived series of progressively 5′-deleted promoter reporters, have been described by us previously (Armoni, Harel et al. 2005). A control synthetic reporter 3×IRS-LUC, containing three repeats of an insulin response element consensus motif in pGL2 was provided by Dr. Eric Tang (Tang, Nunez et al. 1999).
(§2) PRA were transfected by electroporation with 2 μg of GLUT4 promoter reporter DNA, 0-5 μg of expression vectors and 0.5 μg of pCMV-β-galactosidase. […] Within each experiment, values were expressed as a percentage of the basal GLUT4 promoter activity, i.e. the activity obtained in cells transfected with promoter reporter alone. Cell viability was assessed by trypan blue exclusion. Each experiment was repeated three to four times, with each sample analyzed in quadruplicates.

AHNAK = test: Immunofluorescence of AHNAK cellular distribution in HEK cells; format: cell-based, human; details: serum free medium, 24 hrs, insulin 100 nM alone or with LY 20 μM
Protocol: Immunofluorescence Studies—Human embryonic kidney (HEK) cells were plated in 60 mm plates at a density of 500,000 cells/plate. Cells were incubated for 24 h at 37° C. The next day, cells were washed with magnesium-containing phosphate-buffered saline and transferred to serum-deprived medium supplemented with 2% BSA either with or without Insulin (100 nM). After 24 h, the cells were fixed in 4% paraformaldehyde and stained for indirect immunofluorescence using an anti-AHNAK primary antibody (SC 81048), followed by a FITC-conjugated goat anti-mouse secondary antibody. The nuclei were stained by DAPI.

GLUT4 promoter [2] = test: GLUT4-P-Luc promoter reporter (luciferase) assay in primary rat adipocytes (PRA); format: cell-based
Text: as §1
Cell cultures and transient expression assays. […]
as §2

GLUT4 protein = GLUT4 protein level in PRA by Western immunoblotting; format: cell-based, rat; details: NT-transfected PRA, arachidonic acid 100 μM, 24 hrs
Protocol: AHNAK siRNA. Double-stranded RNAs (dsRNAs) targeting the rat AHNAK were purchased from Dharmacon (Dharmacon, Inc, California, USA). The siRNA (On TARGETplus SMARTpool L-101672-01-0010, Rat Ahnak, XM—574618) used in the experiments is a mixture consisting of the siRNAs of the sequences set forth in SEQ ID NO:1 to SEQ ID NO:8.
PRA were transfected by electroporation with the dsRNA (40 ng in PBS, pH=7.4) as described above. After 24 hrs, cells were harvested and total RNA and protein were obtained. Scrambled non targeting duplex RNA (NT-siRNA) was transfected as control. AHNAK silencing was assessed by QRT-PCR, and normalized to 18S rRNA. GLUT4 expression at protein level was assessed by Western immunoblotting as detailed by us before (Armoni et al., 2002; Armoni et al., 2005).

GLUT4 promoter [3] = test: GLUT4-P-Luc promoter reporter (luciferase) assay in H9C2 myotubes; format: cell-based, rat; details: 0-100 μM arachidonic acid, 24 h

Compound | effect on AHNAK repression of 3×IRS-LUC reporter [1] | AHNAK subcellular distribution (AHNAK) | effect on AHNAK fragment repression of GLUT4-P (GLUT4 promoter [2]; PRA transfected with AHNAK fragments, 24 hrs) | decrease in GLUT4 protein levels (GLUT4 protein) | effect on transcription from GLUT4-P (GLUT4 promoter [3]) | effect on transcription from GLUT4-P (GLUT4 promoter [2]; PRA, ambient arachidonic acid levels, 24 h)
insulin: Insulin purchased from SIGMA, Israel | partially rescued the activity; also recorded: curtailed this repression | most of it translocates to the cytosel | partially rescued the activity |  |  | 
O=c1cc(N2CCOCC2)oc2c(-c3ccccc3)cccc12 [LY] |  | AHNAK nuclear re-distribution |  |  |  | 
CCCCC/C=C\C/C=C\C/C=C\C/C=C\CCCC(=O)O [arachidonic acid] |  |  |  | ~40%±3 | dose-dependently repressed transcription from GLUT4-P | dose-dependently repressed transcription from GLUT4-P
